# Experimental data published in US9624235B2, “Compounds and methods for inhibition of AP endonuclease-1/redox factor-1 (HAPE1) activity” (University of Pittsburgh—Of the Commonwealth System of …, priority 2012, dated 2017).
# Read-outs that look alike come from different tables or passages of the source.
# How the values were obtained:
# T98G cells [1] = experiment: Short term (72 h) MTS cytotoxicity assay; format: cell-based, human
# Method: (§1) Cytotoxic Effects of APE-1 Inhibitors on Cultured Human Glioblastoma (T98G) Cells. Human glioblastoma cells (T98G) were maintained in growth medium as described above. […] The cells were allowed to attach and grow for 24 h, and then treated with serial dilutions of the drug for 72 h. After treatment, viable cells were measured by an MTS assay using the CellTiter 96 AQueous kit (Promega) as per manufacturer's instructions. […] The cells were allowed to attach and grow for 24 h and treated with serial dilutions of the drug for 240 h. After treatment, viable cells were measured using the CyQUANT cell proliferation assay kit (Invitrogen) as per manufacturer's instructions.
# (§2) Toxicity. It was assumed that inhibition of APE-1 activity would be lead to toxicity since genetic deletion of the protein is lethal to cells. […] The toxicities were also determined in combination with the DNA minor groove methylating agent, MeLex. MeLex efficiently and selectively generates N3-methyladenine, which is converted into an abasic site by a BER glycosylase and/or hydrolytic depurination. The T98G cell line is relatively resistant to DNA damaging anticancer agents due to expression of multiple drug resistance proteins and O^6-alkylguanine-DNA alkyltransferase. […] A goal of the development of APE-1 inhibitors is to determine if they can be used to enhance the activity of DNA alkylating agents.
# T98G cells [2] = experiment: Long term (10-day) CyQUANT cytotoxicity assay; format: cell-based, human
# Method: as §1, §2
# SK-MEL-5 (melanoma) line = experiment: NCI 60 cell line growth inhibition; format: cell-based; details: Homo sapiens; 4 alone, SK-MEL-5 line
# T98G cells [3] = experiment: Potentiation of MeLex cytotoxicity, long term (10 d) CyQUANT assay; format: cell-based, human
# Method: Cytotoxic Potentiation of Various DNA Damaging Agents. T98G cells maintained in growth medium were resuspended in fresh growth medium and seeded into 96-well plates at 2000 cells/well (short term cytotoxicity) or 100 cells/well (long term cytotoxicity) as described in the previous section. After 24 h, the cells were treated with serial dilutions of various DNA damaging drugs in absence or presence of APE-1 inhibitors. At the end of the treatment period, cell survival was assayed using CellTiter 96 AQueous or CyQUANT kits for the short- and long-term studies respectively.
# as §2
# leukemia cell lines = experiment: NCI 60 cell line growth inhibition; format: cell-based
# APE-1 [4] = target: T1, APE-1 (Homo sapiens (Human), UniProt P27695); experiment: Molecular beacon assay for APE-1 endonuclease inhibition; format: biochemical
# Excerpt: Screening Assays for APE1 Inhibition—The initial screen was designed to look at the effect of potential inhibitors on APE1 repair kinetics. The approach can be used as a high throughput screen by choosing a specific timepoint to monitor. The screen utilizes a molecular beacon with a tetrahydrofuran (THF) abasic site within the stem region of a DNA hairpin that has a fluorophore on the 5′-terminus and a quencher on the 3′-terminus (FIG. 2a). […] An example of the molecular beacon screen and the excision assay are shown in FIGS. 2b,c and 2d, respectively.
# Molecular Beacon Assay for Screening of APE-1 Inhibitors. A fluorescence-based molecular beacon assay to measure APE-1 protein activity and inhibition was performed as described previously with some modifications. Tang et al. Neuro Oncol. 13, 471-486 (2011) APE-1 (2 nM) in 10 mM HEPES (pH 7.8) 0.5 mM MgCl, 100 mM NaCl, 100 mM KCl, 0.0005% (w/v) BSA, was incubated with 20 nM 5′-(F)-CGACTXTTGAATTGACACGCCATGTCGATCAATTCAATAGTCG-(D)-3′ [X=tetrahydrofuran (THF) abasic site modification; F, 6-carboxyfluorescein (6-FAM); and D, DABCYL] that forms a hairpin with a 15 base pair stem and a 13 base loop. The THF modification is a known substrate for APE-1 excision. APE-1 mediated cleavage of the phosphodiester backbone at the THF-abasic site led to release of the 5′ 6-FAM (fluorophore) containing pentanucleotide, disrupting the Förster Resonance Energy Transfer (FRET) mediated quenching of the 6-FAM by DABCYL in the native hairpin oligomer. Since the signal was generated by continuous liberation of the fluorophore-labeled excision fragment, progress of this reaction could be monitored in real-time using a Cary Eclipse fluorescence spectrometer (Varian, Palo Alto, Calif.) or a Synergy H1 multi-well plate reader (BioTek, Winooski, Vt.). Reactions were optimized to yield ˜90% substrate turnover in 10 min, and fluorescence intensities measured every 12 s at 495 nm excitation and 520 nm emission. Data from the first 1-3 min of the assays (linear phase) were used to determine rate of substrate turnover (V0). The Michaelis constant (KM) was deduced experimentally, by incubating 2 nM APE-1 protein with 2-500 nM hairpin DNA substrate and measuring V0 —the experimentally observed V0 were analyzed as a function of substrate concentration [S] via non-linear regression using Prism (v.4; GraphPad Software, Inc., La Jolla, Calif.) and the KM was calculated as per the algorithm in the software package. To assay inhibition, 2 nM APE-1 protein was pre-incubated with 0.05-10.00 μM of the candidate inhibitors at 25° C. for 60 min, before initiating the excision assay by addition of hairpin DNA substrate. V0 was calculated at various concentrations of inhibitors and represented as inverse function of increasing inhibitor concentration [I]. […] All assays were carried out in three independent sets to obtain mean data and standard error of mean.
# (§3) Screening for APE-1 Inhibitors. […] In this assay, the DNA hairpin substrate has a 6-FAM fluorophore on the 5′-terminus, a DABACYL fluorescence quencher on the 3′-terminus and a THF abasic site located 6 base pairs from the 5′-terminus in the stem region (FIG. 6). APE-1 activity is monitored as an increase in fluorescence due to the release of the 5′-(6-FAM)-GCACT fragment as a function of time. […] In this assay, substrate turnover was calculated from relative intensities of cleaved vs. intact oligomers and correlated with inhibitor concentration.
# APE-1 [5] = target: T1, APE-1; experiment: Gel-based excision assay for APE-1 inhibitors; format: biochemical; details: APE-1 cleaved fragment vs. full length DNA substrate
# Method: as §3
# T1 sequence (P27695 whole entry): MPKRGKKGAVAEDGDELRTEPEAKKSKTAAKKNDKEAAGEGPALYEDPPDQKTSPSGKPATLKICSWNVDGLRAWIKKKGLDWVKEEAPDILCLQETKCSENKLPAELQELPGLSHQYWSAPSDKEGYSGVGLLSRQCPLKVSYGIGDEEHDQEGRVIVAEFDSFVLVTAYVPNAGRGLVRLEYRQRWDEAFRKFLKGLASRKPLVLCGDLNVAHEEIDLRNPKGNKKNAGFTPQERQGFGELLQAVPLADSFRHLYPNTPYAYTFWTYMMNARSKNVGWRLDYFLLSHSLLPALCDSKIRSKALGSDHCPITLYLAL
smiles,measurement,setting,value
CCn1c2ccccc2c2cc(/C=N/Nc3cc(C)nc4cc5c(cc34)OCO5)ccc21 [Compound 4],LD10 concentration,T98G cells [1]; 72 h MTS assay,0.25 µM
same,LD50,"T98G cells [1]; MTS assay, T98G",960 nM
same,LD50 / toxicity,"T98G cells [2]; long term (clonogenic) assay, T98G",190 nM
same,LD10 concentration,T98G cells [2]; long term assay,0.08 µM
same,GI50,SK-MEL-5 (melanoma) line,4 µM
same,LD50 of MeLex in the presence of LD10 concentration of inhibitor,T98G cells [3],1.6 µM
same,maximum potentiation of MeLex,T98G cells [3],approximately 5 fold
same,GI50,"leukemia cell lines; 60 cell, 6 leukemia cell lines, read-out: GI50 overall average leukemia cell lines",1.8 ± 2.9 µM
same,GI50,"leukemia cell lines; Homo sapiens, HL-60 omitted, read-out: GI50 leukemia cell lines, HL-60 line omitted",0.64 ± 0.4 µM
same,Ki,"APE-1 [4]; molecular beacon assay, endonuclease activity, read-out: Ki APE-1 endonuclease inhibition",0.12 µM
same,Ki,"APE-1 [4]; molecular beacon screen, read-out: Ki, inhibition curve FIG. 2(c)",0.345 µM
same,IC50,APE-1 [5],4.1 µM
